Reference: ChEMBL document CHEMBL2412952, “2-Substituted 4-hydroxybutanamides as potential inhibitors of γ-aminobutyric acid transporters mGAT1-mGAT4: synthesis and biological evaluation” (Bioorg Med Chem, 2013)

Experiments:
[1] = biological target: Sodium- and chloride-dependent GABA transporter 1 (Mus musculus) (UniProt P31648); assay: Binding affinity to mouse GAT1 stably transfected in HEK293 cells assessed as residual binding at 100 uM relative to control; assay type: cell-based
[2] = biological target: Sodium- and chloride-dependent GABA transporter 1 (Mus musculus) (UniProt P31648); assay: Inhibition of mouse GAT1-mediated [3H]GABA uptake stably transfected in HEK293 cells assessed as residual uptake at 100 uM relative to control; assay type: cell-based
[3] = test system: GABA transporter 3 (Mus musculus); assay: Inhibition of mouse GAT3-mediated [3H]GABA uptake stably transfected in HEK293 cells assessed as residual uptake at 100 uM relative to control
HEK293 = assay: Inhibition of mouse GAT4-mediated [3H]GABA uptake stably transfected in HEK293 cells assessed as residual uptake at 100 uM relative to control; assay type: cell-based
[4] = test system: GABA transporter 2 (Mus musculus); assay: Inhibition of mouse GAT2-mediated [3H]GABA uptake stably transfected in HEK293 cells assessed as residual uptake at 100 uM relative to control
[5] = Inhibition of mouse GAT4-mediated [3H]GABA uptake stably transfected in HEK293 cells; assay type: cell-based
[6] = biological target: T1, Sodium- and chloride-dependent GABA transporter 1 (Mus musculus, UniProt P31648); assay: Inhibition of mouse GAT1-mediated [3H]GABA uptake stably transfected in HEK293 cells; assay type: cell-based
[7] = biological target: T1, Sodium- and chloride-dependent GABA transporter 1; assay: Binding affinity to mouse GAT1 stably transfected in HEK293 cells by NO-711 binding assay; assay type: cell-based

Row | SMILES | Activity [1] | Activity [2] | Activity [3] | Activity (HEK293) | Activity [4] | IC50 [5] | IC50 [6] | Ki [7]
1 | C[C@@H](O)C[C@H](C(=O)NCc1ccccc1Cl)N1CCC(=C(c2ccccc2)c2ccccc2)CC1 (relative stereo) | 99% | 95% | 79% | 99% | 69% |  |  | 
2 | CN(CCC=C(c1ccccc1)c1ccccc1)C(CCO)C(=O)NCc1ccc(F)cc1 (stereo unspecified) | 73% |  |  |  |  | 20 µM | 21.9 µM | 
3 | O=C(NCc1ccc(Cl)cc1)C(CCO)NCCCC(c1ccccc1)c1ccccc1 (stereo unspecified) |  |  |  |  |  | 16.6 µM | 23.4 µM | 56.2 µM
4 | CN(CCCC(c1ccccc1)c1ccccc1)C(CCO)C(=O)NCc1ccccc1 (stereo unspecified) | 79% |  |  |  |  | 36.3 µM | 58.9 µM | 
5 | O=C(NCc1ccccc1Cl)C(CCO)N1CCC(=C(c2ccccc2)c2ccccc2)CC1 (stereo unspecified) | 68% | 58% |  |  |  | 67.6 µM |  | 
6 | C[C@H](O)C[C@H](C(=O)NCc1ccccc1Cl)N1CCC(=C(c2ccccc2)c2ccccc2)CC1 (relative stereo) | 95% | 47% |  | 71% | 73% |  |  | 
7 | C[C@@H](O)C[C@H](C(=O)NCc1ccccc1)N1CCC(=C(c2ccccc2)c2ccccc2)CC1 (relative stereo) | 50% |  |  |  |  | 89.1 µM | 7.76 µM | 
8 | CN(CCCC(c1ccccc1)c1ccccc1)C(CCO)C(=O)NCc1ccc(F)cc1 (stereo unspecified) | 74% |  |  |  |  | 58.9 µM | 97.7 µM | 
9 | Cc1ccsc1C(=CCCN1CCC[C@@H](C(=O)O)C1)c1sccc1C [TIAGABINE] |  |  |  | 73% |  |  |  | 0.0389 µM
10 | O=C(NCc1ccccc1Cl)C(CCO)N1CCC(C(c2ccccc2)c2ccccc2)CC1 (stereo unspecified) | 89% |  |  |  |  | 67.6 µM | 19.5 µM | 
11 | O=C(NCc1ccccc1)C(CCO)N1CCC(C(c2ccccc2)c2ccccc2)CC1 (stereo unspecified) | 55% |  |  |  | 51% | 58.9 µM | 13.2 µM | 
12 | Cc1ccc(CNC(=O)[C@@H](C[C@H](C)O)N2CCC(=C(c3ccccc3)c3ccccc3)CC2)cc1 (relative stereo) | 57% |  |  |  |  | 34.7 µM | 53.7 µM | 
13 | C[C@H](O)C[C@H](C(=O)NCc1ccc(Cl)cc1)N1CCC(=C(c2ccccc2)c2ccccc2)CC1 (relative stereo) | 69% |  |  |  |  | 69.2 µM | 66.1 µM | 
14 | O=C(NCc1ccc(Cl)cc1)C(CCO)N1CCC(=C(c2ccccc2)c2ccccc2)CC1 (stereo unspecified) |  |  |  |  |  | 17.8 µM | 33.9 µM | 75.9 µM
15 | O=C(NCc1ccc(Cl)cc1)C(CCO)N1CCC(C(c2ccccc2)c2ccccc2)CC1 (stereo unspecified) | 68% |  |  |  |  | 69.2 µM | 24 µM | 
16 | C[C@@H](O)C[C@H](C(=O)NCc1ccc(F)cc1)N1CCC(=C(c2ccccc2)c2ccccc2)CC1 (relative stereo) |  |  |  |  |  | 41.7 µM | 16.2 µM | 42.7 µM
17 | C[C@H](O)C[C@H](C(=O)NCc1ccccc1)N1CCC(=C(c2ccccc2)c2ccccc2)CC1 (relative stereo) | 51% |  |  |  |  | 72.4 µM | 24 µM | 

Row | SMILES | Activity [1] | Activity [2] | Activity [3] | Activity (HEK293) | Activity [4] | IC50 [5] | IC50 [6] | Ki [7]
18 | CN(CCC=C(c1ccccc1)c1ccccc1)C(CCO)C(=O)NCc1ccccc1 (stereo unspecified) | 50% |  |  |  |  | 22.9 µM | 10.5 µM | 
19 | Cc1ccc(CNC(=O)C(CCO)N2CCC(C(c3ccccc3)c3ccccc3)CC2)cc1 (stereo unspecified) | 55% |  |  |  |  | 87.1 µM | 30.2 µM | 
20 | O=C(NCc1ccc(F)cc1)C(CCO)N1CCC(C(c2ccccc2)c2ccccc2)CC1 (stereo unspecified) | 49% |  |  |  |  | 81.3 µM | 18.2 µM | 
21 | C[C@H](O)C[C@H](C(=O)NCc1ccc(F)cc1)N1CCC(=C(c2ccccc2)c2ccccc2)CC1 (relative stereo) | 52% |  |  | 65% |  |  | 34.7 µM | 
22 | CN(CCC=C(c1ccccc1)c1ccccc1)C(CCO)C(=O)NCc1ccc(Cl)cc1 (stereo unspecified) | 61% |  |  |  |  | 11.2 µM | 23.4 µM | 
23 | O=C(NCc1ccccc1Cl)C(CCO)NCCCC(c1ccccc1)c1ccccc1 (stereo unspecified) |  |  |  |  |  | 20.9 µM | 33.1 µM | 46.8 µM
24 | Cc1ccc(CNC(=O)C(CCO)N2CCC(=C(c3ccccc3)c3ccccc3)CC2)cc1 (stereo unspecified) |  |  |  |  |  | 33.9 µM | 38 µM | 43.7 µM
25 | Cc1ccc(CNC(=O)C(CCO)N(C)CCC=C(c2ccccc2)c2ccccc2)cc1 (stereo unspecified) | 50% |  |  |  |  | 16.6 µM | 22.4 µM | 
26 | CN(CCCC(c1ccccc1)c1ccccc1)C(CCO)C(=O)NCc1ccc(Cl)cc1 (stereo unspecified) | 67% |  |  |  |  | 22.9 µM | 38.9 µM | 
27 | CN(CCCC(c1ccccc1)c1ccccc1)C(CCO)C(=O)NCc1ccccc1Cl (stereo unspecified) | 85% |  |  |  |  | 25.7 µM | 37.2 µM | 
28 | O=C(NCc1ccccc1)C(CCO)NCCCC(c1ccccc1)c1ccccc1 (stereo unspecified) | 62% |  |  |  |  | 38.9 µM | 61.7 µM | 
29 | Cc1ccc(CNC(=O)C(CCO)NCCCC(c2ccccc2)c2ccccc2)cc1 (stereo unspecified) |  |  |  |  |  | 23.4 µM | 55 µM | 51.3 µM
30 | Cc1ccc(CNC(=O)C(CCO)N(C)CCCC(c2ccccc2)c2ccccc2)cc1 (stereo unspecified) |  |  |  |  |  | 20.4 µM | 37.2 µM | 81.3 µM
31 | O=C(NCc1ccc(F)cc1)C(CCO)NCCCC(c1ccccc1)c1ccccc1 (stereo unspecified) | 82% |  |  |  |  | 25.1 µM | 38.9 µM | 
32 | Cc1ccc(CNC(=O)[C@@H](C[C@@H](C)O)N2CCC(=C(c3ccccc3)c3ccccc3)CC2)cc1 (relative stereo) | 58% | 46% |  |  |  |  |  | 
33 | CN(CCC=C(c1ccccc1)c1ccccc1)C(CCO)C(=O)NCc1ccccc1Cl (stereo unspecified) | 54% |  |  |  |  | 10 µM | 19.1 µM | 
